Results on four molecules are retold here after article PMC2652713, “Molecular Blocking of CD23 Supports Its Role in the Pathogenesis of Arthritis” (PLoS ONE, 2009).

In assay [1] the test system is human CD23+ monocyte-derived macrophages. The assay is described as follows: Nitrite (NO) generation by CD23-activated human macrophages, Griess reaction. The assay is classed as cell-based. The following applies: for iNOS-mediated NO generation: pre-incubation prior to CD23-mediated activation, mean±s.d. of 7 donors (Figure 2C). The protocol:
Figure 2 Inhibition of CD23-mediated activation of iNOS pathway in human macrophages by p30A. Human CD23^+ monocyte-derived macrophages were incubated with cross-linking CD23-McAb (20 µg/ml) alone or following 1 h pre-incubation with 10 µg/ml of various peptides. […] Expression of iNOS mRNA was compared to HPRT mRNA levels. (B) Inhibition of NO generation from human activated macrophages by synthetic peptides. Cell supernatants were collected 72 h following cell cultures and levels of nitrites were determined. […] Results are expressed as mean of 3 distinct donor cell preparations (SEM<20%). (C) Inducible NOS-mediated NO generation in human macrophages is decreased following pre-incubation with p30A or L-NIL prior to CD23-mediated activation. Results are expressed as mean±s.d. of 7 distinct donor cell preparations.
(§1) Monocytes or macrophages were activated through CD23 pathway: while monocytes/macrophages from RA patients express CD23, monocytes from healthy donors must be pre-activated to express surface CD23 as described. This pre-activation was obtained by incubation of healthy monocytes with recombinant human IL-4 (20 ng/ml) during 48 h at 37°C; After washing, all cell populations were tested by flow cytometry for their surface CD23 expression (>80% CD23^+) and then incubated in the presence of cross-linking CD23-MAb (clones 135 or DM2, IgG1k, 20 µg/ml) during 48–72 h, or IgE and anti-IgE as described, [17]. When indicated, peptides were added to the cells 2 h prior to their activation. Cells supernatants were then analyzed for their nitric oxide content (see below) and for the presence of cytokines: levels of TNF-α and IL-6 were determined in duplicates for each sample by a specific ELISA (R&D, Paris, France) while levels of IL-1β, IL-8 and IL-10 was determined using FlowCytomix Human Th1/Th2 Kit as recommended (Bender Medsystems, Vienna, Austria).
Culture supernatants (72 h) were assayed for the stable end-product of NO, NO2 ^− using the Griess reaction modified as detailed elsewhere. Inhibitory analog of L-arginine, L-NIL (N(6)-(1-iminoethyl)-L-lysine/2HCl, Coger SA, Paris, France) was used to inhibit iNOS-mediated NO generation. This method gave a sensitivity limit of 0.2 µM if low NO2 ^− medium (DMEM) was used. Total RNA was isolated as above from peritoneal macrophages. Reverse transcription-PCR was performed with an automatic thermal cycler (iCycler, Biorad) using the following specific primers: iNOS mRNA sense (5′-[…]-3′, exon 8) and iNOS mRNA antisense (5′-[…]-3′, exon 11). Hypoxanthine phosphoribosyltransferase (HPRT) mRNA sense (5′-[…]-3′) and HPRT mRNA antisense (5′-[…]- 3′) primers were used as controls. The iNOS messenger is represented by a 371-bp band, whereas a 496-bp band indicates the HPRT messenger.
In general terms: Nitrite, measured by Griess reagent, commonly stands in for NO production.

The next assay concerns iNOS. The following applies: cited from earlier work. An excerpt:
Upon acquisition of CD23 surface expression, human cells may be activated using its biological ligands (e.g. IgE/antigen) or cross-linking with a specific anti-CD23 McAb, [16]. […] To confirm the ability of p30A to inhibit CD23-mediated signaling in human macrophages, we pretreated cells with purified peptides prior to their activation by McAb. Synthetic p30A reduced the levels of inducible nitric oxide syntha ...

For assay [2], the system named is peritoneal macrophages of AIA rats. Kind of assay: Ex vivo cytokine release from peritoneal macrophages of treated AIA rats, ELISA. The following applies: treatment after onset of symptoms (AIA+p30A, 10 mg/rat; HC 30 mg/rat); cells collected 50 days post-immunization; 48 h culture; 4 rats. The format is in vivo, rat, Female Lewis.
Protocol: AIA rats were treated either after (AIA+p30A) or before (p30A+AIA) the onset of symptoms. Treatment consisted of p30A (10 mg/rat) or hydrocortisone (HC, 30 mg/rat). Rat peritoneal macrophages were collected following 50 days post-immunization, washed and re-incubated in culture medium alone. Cell supernatants were collected 48 h later and cytokine levels were quantified. Macrophages from healthy rats were also incubated in similar conditions. Values are mean±s.d. of cells from 4 different rats.
Adjuvant arthritis was induced in six week-old animals by subcutaneous injection at the base of the tail of 300 µl containing 1.8 mg of inactivated Mycobacterium butyricum (Difco Laboratories, Detroit, MI) diluted in emulsion of 8 ml Vaseline, 1 ml polysorbate 80, and 1 ml PBS (Phosphate Buffer Saline, Eurobio). Rats were boosted one week later following the same procedure. Observation was conducted for up to 50 days following immunization for clinical signs of arthritis. Rats were divided in different groups of 8 rats. Groups were treated with five injections (every 2 days) of either p30A (10, 50 or 100 mg in a PBS solution), pCtl, hydrocortisone (Sigma Aldrich) or PBS solution. Injections were initiated two days after the appearance of first arthritic symptoms (therapeutic) or on the first day of immunization (preventive). […] Rats were sacrificed 50 days after AIA induction. Peritoneal macrophages were collected and incubated in culture medium alone for 48 h. Quantification of TNF-α and IL-1β in rat cell supernatants was performed using appropriate ELISA kits and according to manufacturer's recommendations (Biosource, Montrouge, France).
Assay [3] relates to adjuvant-induced arthritis in rats. The assay is described as follows: Adjuvant-induced arthritis (AIA) clinical score in rats. The format is in vivo, rat, Female Lewis. To be noted: AIA rats; pCtl 100 mg/rat. The protocol: Figure 6 Inhibition of in vitro and in vivo inflammatory responses in rats by p30A peptide. (A) Rat peritoneal macrophages were activated via CD23 antigens with/without p30A, L-NIL or pCtl. Cell supernatants were collected 48 h later and nitrite levels were quantified. Values are mean±s.d. of cells from 3 different rats. (B) Cumulative clinical score/rat obtained following 50 days post-immunization in all groups. AIA rats were treated either after or before (d0) the onset of symptoms. Treatment consisted of p30A, hydrocortisone (HC, 30 mg/rat)) or pCtl (100 mg/rat). Shown are means of cumulative score/rat±s.d. from 5 (HC) or 8 rats (other conditions). (C) Evolution of arthritis severity scores of adjuvant-induced arthritis (AIA) in rats treated with intracutaneous p30A or pCtl (100 mg/rat) or hydrocortisone (after the onset of clinical signs as illustrated by arrows (means from 8 rats, s.e.m.<20%). (D) Histopathologic analysis confirm p30A ability to decrease all components of AIA lesions: pannus formation and inflammation of the synovium (P), deformity of joint and bones (asterix), bone remodeling and destruction (arrowhead), bone neoformation (arrows) and cartilage destruction.
All animal procedures were performed in strict accordance with the guidelines issued by the European Economic Community “86/609”. Female Lewis rats (Janvier, Le Genest St Isle, France) were housed under standard laboratory conditions with free access to food and water. The temperature was kept at 22±2°C and a 12 hour light/dark schedule was maintained.
Adjuvant arthritis was induced in six week-old animals by subcutaneous injection at the base of the tail of 300 µl containing 1.8 mg of inactivated Mycobacterium butyricum (Difco Laboratories, Detroit, MI) diluted in emulsion of 8 ml Vaseline, 1 ml polysorbate 80, and 1 ml PBS (Phosphate Buffer Saline, Eurobio). Rats were boosted one week later following the same procedure. Observation was conducted for up to 50 days following immunization for clinical signs of arthritis. Rats were divided in different groups of 8 rats. Groups were treated with five injections (every 2 days) of either p30A (10, 50 or 100 mg in a PBS solution), pCtl, hydrocortisone (Sigma Aldrich) or PBS solution. Injections were initiated two days after the appearance of first arthritic symptoms (therapeutic) or on the first day of immunization (preventive). Evaluation of AIA severity was performed by two independent observers who where not aware of the study protocol. The severity of AIA in each paw was quantified daily using an ordinal clinical score measurement from 0 to 4 as follows: no signs of inflammation ( = 0); swelling alone (>2 fold paw diameter) ( = 1) or swelling/immobility ( = 2) of one paw; swelling ( = 3) or swelling/immobility ( = 4) of two paws. Weight evolution of rats was measured daily. Rats were sacrificed 50 days after AIA induction. Peritoneal macrophages were collected and incubated in culture medium alone for 48 h. Quantification of TNF-α and IL-1β in rat cell supernatants was performed using appropriate ELISA kits and according to manufacturer's recommendations (Biosource, Montrouge, France).

Assay [4] concerns healthy human PBL-derived macrophages. The assay is described as follows: Inflammatory mediator release from healthy human PBL-derived macrophages. The assay is classed as cell-based. The following applies: mean±s.d. As to the method: Figure 4 Inhibition of inflammatory mediator generation from healthy human PBL-derived macrophages by p30A. Decreased levels of TNF-α (A), IL-6 (B), IL-1β, IL-8 and IL-10 (C) were detected in CD23-activated cells after incubation with p30A. […] Values are mean±s.d. of cells from 5 (IL-6, TNF-α) or 2 (IL-1β, IL-8, IL-10) different donors.
as §1

In the next assay the test system is asthma. The following applies: Phase I; cited from earlier work. The source says: CD23 was also directly triggered by specific antibodies as therapeutic approach.

For the molecule `CC(=N)NCCCC[C@H](N)C(=O)O.Cl.Cl` [L-NIL, N(6)-(1-iminoethyl)-L-lysine/2HCl, reference compound], the “iNOS-mediated NO generation” value in assay [1] is “decreased”. Further, the iNOS inhibition entry in the assay with iNOS was “specific inhibitor of iNOS”.
On to `C[C@]12CCC(=O)C=C1CC[C@@H]1[C@@H]2[C@@H](O)C[C@@]2(C)[C@H]1CC[C@]2(O)C(=O)CO` [hydrocortisone, reference compound], for which the “IL-1β release ex vivo, therapeutic” value in assay [2] is on record as “moderately decreased IL-1β levels”.
SFNYNYA [pCtl, reference compound]: in assay [1] (CD23-McAb 20 µg/ml, 1 h pre-incubation with peptide, supernatants at 72 h, mean of 3 donors (SEM<20%)), the “NO (nitrite) generation, dose-dependence” value was “no effect”. For the same molecule, the “iNOS-mediated NO generation” value in assay [1] is recorded as “not observed”. Also, in assay [3], the “beneficial effect on arthritis” value is recorded as “this beneficial effect was not found”. In addition, in assay [4] (ELISA, 5 donors), the IL-6 level result is “No effect” and the TNF-α level result is “No effect”. Besides, in assay [4] (FlowCytomix, 2 donors), the IL-1β level result is listed as “No effect”, the IL-8 level result is given as “No effect” and the IL-10 level result is “No effect”.
Take “lumiliximab: Primate/human CD23-McAb, developed for the treatment of chronic lymphocytic leukemia”: the “clinical outcome, asthma” value in the assay on asthma is “promising therapy in Phase I of clinical trials for asthma”.
